In US20070142386A1, “New 2-substituted, 4-amino-thiazolo[4,5-d] pyrimidines, useful as chemokine receptor antagonists, esp. cx3cr1” (AstraZeneca, priority 2003, published 2007):
Converted amounts (≈) assume the structure as drawn. Like-named read-outs stand apart in the source and are kept apart here.

How the values were obtained:
[1] = Solubility assay (0.1M phosphate buffer, pH 7.4, 24 hours); assay type: physicochemical; conditions: 100 μM from DMSO stock in 0.1M phosphate buffer, pH 7.4, room temperature, upper limit 100 μM, LOQ 0.1 μM
Procedure: 100 μM Solutions in duplicate, prepared by dilution from a 10 mM DMSO stock solution of the test compound, were incubated in 0.1M phosphate buffer, pH 7.4, in a 96-well plate (PP plate, 350 μl U-shaped wells, COSTAR) on a plate bed shaker (IKA®-Schuttler MTS-4, IKA Labortechnik) at 300 rpm and room temperature (20-22° C.) for 24 hours.
The solutions were transferred to a MultiScreen™-R4 96-well filtration plate (LCR membrane, 0.4 μm hydrophilic PTFE, non-sterile glass-filled PP plate, 350 μl wells, Millipore) and filtered under vacuum to a 96-well collection plate (PP plate, 350 μl U-shaped wells, COSTAR), called the analyte plate, using Millipore Vacuum Manifold equipment. The analyte plate was covered by heat-sealing with an aluminium foil coated with a PP seal layer (AB-0813, pierceable sealing foil strong, ABgene).
LC-UV-MS analysis was performed using a generic LC method.
Single point quantification was performed against two 100 μM standards of the test compound dissolved in DMSO at the wavelength showing maximum UV absorbance as extracted from the DAD-trace (210-400 nm). The upper limit of the screen method is 100 μM with a LOQ of 0.1 μM.

[2] = target: T1, human fractalkine receptor (hCX3CR1) (Homo sapiens, UniProt P49238); assay: Ligand binding assay (competition binding with [125I]-fractalkine on cell membranes)
T1 construct: expressed in transfected cells; host or cells: HEKS 293 (human embryonic kidney suspension) cells stably expressing the chimeric G-protein Gαqi5; Membranes were used in the assay
T1 sequence (P49238 1-355): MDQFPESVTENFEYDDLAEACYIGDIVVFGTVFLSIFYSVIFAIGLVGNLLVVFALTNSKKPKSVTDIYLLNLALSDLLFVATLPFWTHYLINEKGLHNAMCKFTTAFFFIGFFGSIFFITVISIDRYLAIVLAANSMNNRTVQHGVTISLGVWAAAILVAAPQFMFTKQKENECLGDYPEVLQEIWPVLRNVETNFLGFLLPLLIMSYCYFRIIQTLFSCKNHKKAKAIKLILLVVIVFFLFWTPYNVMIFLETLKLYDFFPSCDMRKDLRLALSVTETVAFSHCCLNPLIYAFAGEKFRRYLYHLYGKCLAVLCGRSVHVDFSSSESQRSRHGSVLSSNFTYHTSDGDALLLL
Procedure: Recombinant human fractalkine (hCX3CL1) was purchased from PeproTech Inc., UK. […] Fluo4-AM was purchased from Molecular Probes, US. All other chemicals were of analytical grade.
A stable clone was generated utilizing zeocin (500 μg/ml) and hygromycin (100 μg/ml) selection. For further applications the cells were maintained in Dulbecco's modified Eagle's medium/Ham's nutrient mix F12 (DMEMF12) containing pyridoxine and supplemented with 10% (v/v) fetal bovine serum, 2 mM L-glutamine, 100 U/ml penicillin and 100 mg/ml streptomycin, 250 μg/ml zeocin and 100 μg/ml hygromycin.
For the competition binding assay cells were harvested in buffer containing 10 mM Tris-HCl, pH 7.4, 5 mM ethylenediaminetetra-aceticacid (EDTA) and 0.1 mg/ml bacitracin (a protease inhibitor) and centrifuged at 300×g for 10 min. Cell pellets were then resuspended in harvesting buffer, pooled and homogenised using Dounce homogeniser. Cell membranes were centrifuged at 48000×g for 10 min and then resuspended in harvesting buffer using Ultra-Turrax T8 (IKA Labortechnik, Germany). […] Membrane aliquotes were stored at −70° C. […] MeltiLex solid scintillator (PerkinElmer LifeSciences,US) were melted onto filters and radioactivity was measured in a Wallac1205 Betaplate counter (PerkinElmer LifeScience, US).

[3] = 21 °C, aqueous buffer, kinetic from dmso stock

SMILES	solubility at 24 h [1, 3] [µM]	further results
COc1cccc(COc2nc(N[C@@H](CO)CC(C)C)c3sc(N)nc3n2)c1 [Example 2, (2R)-2-({2-Amino-5-[(3-methoxybenzyl)oxy][1,3]thiazolo[4,5-d]pyrimidin-7-yl}amino)-4-methylpentan-1-ol]	72.9 (≈ 29.4 µg/mL)	–
COc1cccc(COc2nc(N[C@@H](CO)CC(C)C)c3sc(=O)[nH]c3n2)c1 [Example 26, 7-{[(1R)-1-(Hydroxymethyl)-3-methylbutyl]amino}-5-[(3-methoxybenzyl)oxy][1,3]thiazolo[4,5-d]pyrimidin-2(3H)-one]	78.5 (≈ 31.8 µg/mL)	–
CC(C)C(CO)Nc1nc([S+]([O-])Cc2ccccc2)nc2[nH]c(=O)sc12 [Example 49, 5-[Benzyl-(RSSS)-sulfinyl]-7-{[(1R)-1-(hydroxymethyl)-2-methylpropyl]amino}[1,3]thiazolo[4,5-d]pyrimidin-2(3H)-one]	> 100	–
CC(C)C[C@H](CO)Nc1nc(OCc2ccccc2)[nH]c2nc(=O)sc1-2 [Example 25, 5-(Benzyloxy)-7-{[(1R)-1-(hydroxymethyl)-3-methylbutyl]amino}[1,3]thiazolo[4,5-d]pyrimidin-2(3H)-one]	29 (≈ 10.9 µg/mL)	Ki [2]: 44.6 nM
CC(C)C[C@H](CO)N(C)c1nc([S+]([O-])CCc2ccccc2Br)nc2nc(N)sc12 (mixture of isomers) [Example 13, (R)-2-[(2-Amino-5-{[2-(2-bromophenyl)ethyl]-(RS,SS)-sulfinyl}[1,3]thiazolo[4,5-d]pyrimidin-7-yl)(methyl)amino]-4-methylpentan-1-ol]	–	solubility at 24 h [1]: 33.8 µM (≈ 17.3 µg/mL)
CC(C)C[C@H](CO)Nc1nc(SCc2ccccc2)nc2[nH]c(=O)sc12 [drawing 18 X = S, 5-(Benzylthio)-7-{[(1R)-1-(hydroxymethyl)-3-methylbutyl]amino}[1,3]thiazolo[4,5-d]pyrimidin-2(3H)-one, reference compound]	1.3 (≈ 0.508 µg/mL)	–
CC(C)[C@H](CO)Nc1nc(SCc2ccccc2)nc2[nH]c(=O)sc12 [drawing 21 X = S, 5-(Benzylthio)-7-{[(1R)-1-(hydroxymethyl)-2-methylpropyl]amino}[1,3]thiazolo[4,5-d]pyrimidin-2(3H)-one, reference compound]	8.5 (≈ 3.2 µg/mL)	–
CC(C)C[C@H](CO)Nc1nc(OCCc2ccccc2)nc2nc(N)sc12 [Example 3, (2R)-2-{[2-Amino-5-(2-phenylethoxy)[1,3]thiazolo[4,5-d]pyrimidin-7-yl]amino}-4-methylpentan-1-ol]	63.6 (≈ 24.6 µg/mL)	–

Continued, in another order:

solubility at 24 h [1, 3] [µM]	SMILES	further results
> 100	CC(C)C[C@H](CO)Nc1nc([S+]([O-])Cc2cccc(F)c2F)nc2[nH]c(=O)sc12 (mixture of isomers) [Example 45, 5-[(2,3-Difluorobenzyl)-(RS,SS)-sulfinyl]-7-{[(1R)-1-(hydroxymethyl)-3-methylbutyl]amino}[1,3]thiazolo[4,5-d]pyrimidin-2(3H)-one]	Ki ([2]; 10 pM [125I]-fractalkine, membranes of HEKS 293 cells expressing hCX3CR1, 25° C., 24 h, read-out: Ki): 38 nM
1.3 (≈ 0.548 µg/mL)	CC(C)C[C@H](CO)Nc1nc(SCc2cccc(F)c2F)nc2[nH]c(=O)cnc12 [drawing 17 X = S, 2-[(2,3-Difluorobenzyl)thio]-4-{[(1R)-1-(hydroxymethyl)-3-methylbutyl]amino}pteridin-7(8H)-one, reference compound]	–
2.1 (≈ 0.896 µg/mL)	CC(C)C[C@H](CO)Nc1nc(SCc2cccc(F)c2F)nc2[nH]c(=O)sc12 [drawing 20 X = S, 5-[(2,3-Difluorobenzyl)thio]-7-{[(1R)-1-(hydroxymethyl)-3-methylbutyl]amino}[1,3]thiazolo[4,5-d]pyrimidin-2(3H)-one, reference compound]	–
44 (≈ 19.2 µg/mL)	CC(C)CC(CO)Nc1nc([S+]([O-])Cc2cccc(F)c2F)nc2[nH]c(=O)cnc12 [Example 24, 2-[(2,3-Difluorobenzyl)-(RS,SS)-sulfinyl]-4-(1R)-1-(hydroxymethyl)-3-methylbutyl]amino}pteridin-7(8H)-one]	–
